Results as given in PMC9854774, “Monocarbonyl Curcumin Analogues as Potent Inhibitors against Human Glutathione Transferase P1-1” (Antioxidants, 2022).
“Also recorded” adds a separate entry of the source. Read-outs that look alike come from different tables or passages of the source.

Legend:
[1] = target: T1, hGSTP1-1 (Homo sapiens, UniProt P09211); test: hGSTP1-1 enzyme activity/inhibition assay (CDNB-GSH conjugation, 340 nm); format: biochemical; conditions: recombinant hGSTP1-1, 25 °C; for Enzyme Inhibition (%) / inhibition at 100 µM: compound at final concentration of 100 μM; for IC50: CDNB/GSH assay, read-out: IC50 against hGSTP1-1
T1 construct: made in house; host or cells: E. coli BL21 (DE3)
Procedure: Determination of hGSTP1-1 activity was performed by monitoring the formation of the conjugate between CDNB and GSH and measuring the absorption at λ = 340 nm (ε = 9600 L·mol^−1·cm^−1) at 25 °C for 120 s, as described previously. One unit of enzyme activity is defined as the amount of enzyme that produces 1.0 μmol of product per minute under the assay conditions. Curcuminoids and monocarbonyl curcumin analogues were dissolved in DMSO (100 μΜ) and added to the assay mixture (the volume of DMSO was maintained at 2% v/v final concentration). The mixture was incubated at 25 °C for 1 min, prior to adding the enzyme sample. Initial velocities were determined in triplicates and were corrected for spontaneous reaction rates, when necessary. […] The IC50 values were determined from a graph of the remaining GST activity (%) against inhibitor concentration.
(§1) The computer program GraphPad Prism version 8 (GraphPad Prism Software, Inc., San Diego, CA, USA) was used for producing kinetic graphs and determining apparent kinetic parameters/constants and IC50 values.

[2] = target: T1, hGSTP1-1; parameters: method as in PMID 9463521, PMID 17046132; conditions: pH 7.4; presumably covalent binding to Cys-47; cited from earlier work
[3] = target: T1, hGSTP1-1; test: Circular dichroism study of enzyme conformation; conditions: 5 μΜ inhibitor; 0.1 mg/mL hGSTP1-1, 2.5 mM GSH (± 1 mM CDNB), pH 6.5
Procedure: CD studies were performed using a JASCO J-715 spectropolarimeter (Jasco Co., Tokyo, Japan) equipped with Peltier temperature controller (Jasco Co., Tokyo, Japan), at 25 °C and a wavelength range of 190–400 nm using a 1-mm-path length quartz cuvette. Each CD spectrum is the average of three scans at 200 nm·min^−1 and a resolution of 0.5 nm. The CD solutions were prepared by mixing the appropriate volumes of stock solutions to give final concentrations of 0.1 mg/mL of hGSTP1-1, 2.5 mM of GSH, 1 mM of CDNB, and 5 μΜ of inhibitor in potassium phosphate buffer (100 mM, pH 6.5) at room temperature, while CD spectra of plain solutions of GSH, CDNB, DM96, and DM62 at the same concentrations were also run as controls (see supporting information). The analysis of the CD data was performed using the OriginPro 9 program and the content of the secondary structure was calculated through the CDNN Circular Dichroism Spectroscopy Deconvolution software.

[4] = target: T1, hGSTP1-1; test: Kinetic inhibition analysis of hGSTP1-1 (Lineweaver-Burk); format: biochemical; conditions: for Experimental Binding Free Energy ΔGexp: calculated from Ki; for Experimental Binding Free Energy ΔG′exp: calculated from Ki΄; for Type of Inhibition: pH 6.5, 25 °C; for Inhibition Constant Ki΄: binding to enzyme-substrate complex; for Ki: binding to free enzyme, read-out: Inhibition Constant Ki
Procedure: as §1
Initial velocities (25 °C) for the hGSTP1-1-catalyzed reaction with CDNB as a variable substrate were determined in reaction mixtures (1 mL total volume) containing potassium phosphate buffer (100 mM, pH 6.5), 2.5 mM GSH, and different concentrations of CDNB (typically 14–1000 μM) in the absence and presence of inhibitors (DM96, DM151, DM109, DMC, 0–50 μM). Initial velocities for the hGSTP1-1-catalyzed reaction with GSH as a variable substrate were determined in reaction mixtures (1 mL total volume) (25 °C) containing potassium phosphate buffer (100 mM, pH 6.5), 1 mM CDNB, and different concentrations of GSH (typically 37.5–3750 μΜ) in the absence and presence of inhibitors (DM96, DM151, DM109, Curcumin II, 0–50 μM).

[5] = test system: DU-145 cells; test: In vitro cytotoxicity, MTT colorimetric assay; format: cell-based, human; conditions: read-out: IC50 against DU-145
Procedure: DU-145 cells were grown in Dulbecco’s modified eagle medium (DMEM) growth medium of pH 7.4, supplemented with 10% fetal bovine serum (FBS), penicillin (100 U·mL^−1), glutamine (2 mM), and streptomycin (100 μg·mL^−1). Cell cultures were maintained in flasks and were grown at 37 °C in a humidified atmosphere of 5% CO2 in air. […] The subcultivation ratio was 1:2 to 1:5.
Cells were seeded in 96-well plates (8 × 10^3 cells/well in 100 μL culture medium) and grown overnight at 37 °C in a 5% CO2 incubator. Exponentially growing cells were incubated for 48 h with various concentrations ranging between 10^−3–10^−[…] of each derivative, and the final DMSO concentration never exceeded 0.2%. The medium was then removed and replaced with 100 μL of MTT solution (1 mg·mL^−1). After a 4 h incubation, the solution was aspirated, formazan crystals were solubilized in 100 μL of DMSO, and absorbance was recorded at 540 nm on a Tecan well plate reader. The results were expressed as % cell viability = (mean optical density (OD) of treated cells/mean OD of untreated cells) × 100.

[6] = test system: native GST extracted from DU-145 cells; test: Inhibition of native GST activity in DU-145 cell lysate; format: biochemical, human; conditions: inhibitor at its IC50 for recombinant hGSTP1-1, 25 °C
Procedure: DU-145 cells were trypsinized, transferred to a Falcon tube, and centrifuged at 1500× g for 10 min. Subsequently, DMEM was removed and the cell pellet was resuspended in 1 mL of potassium phosphate buffer. The cells were lysed by sonication, the suspension was centrifuged at 13,000× g for 5 min, and the supernatant was collected.

[7] = variable substrate CDNB, 2.5 mM GSH
[8] = variable substrate GSH, 1 mM CDNB
[9] = Homo sapiens, DU-145, 48 h, MTT, 48 h incubation

T1 sequence (P09211 2-210 limits assumed): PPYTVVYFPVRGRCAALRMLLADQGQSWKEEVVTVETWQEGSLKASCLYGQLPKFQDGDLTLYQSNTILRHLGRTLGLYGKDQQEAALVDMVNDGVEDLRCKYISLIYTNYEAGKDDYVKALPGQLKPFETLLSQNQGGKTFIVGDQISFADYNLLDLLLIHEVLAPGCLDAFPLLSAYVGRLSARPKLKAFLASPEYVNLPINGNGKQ

Row | Compound | inhibition at 100 µM [1] | Experimental Binding Free Energy ΔGexp ([4]; variable substrate CDNB) | Experimental Binding Free Energy ΔGexp ([4]; variable substrate GSH) | Ki ([4]; variable substrate CDNB) | Ki ([4]; variable substrate GSH) | IC50 [1] | Enzyme Inhibition (%) ([1]; 100 µM) | other results
1 | 2,6-bis(3,4-dihydroxybenzylidene)cyclohexanone [DM57] | – | – | – | – | – | – | – | Enzyme Inhibition (%) [1]: 16.75 ± 3.61%
2 | 2,6-dibenzylidenecyclohexanone [DM15] | – | – | – | – | – | – | – | Enzyme Inhibition (%) [1]: 66.23 ± 2.57%
3 | COc1cc(/C=C/C(=O)CC(=O)/C=C/c2ccc(O)c(OC)c2)ccc1O [Curcumin] | – | – | – | – | – | – | – | Mode of inhibition of hGSTP1-1 [2]: irreversible inhibitor
4 | COc1ccc(/C=C2\CCC/C(=C\c3ccc(OC)cc3)C2=O)cc1 [DM46, 2,6-bid(4-methoxybenzylidene)cyclohexanone] | 8.5 ± 2.13% | – | – | – | – | – | – | –
5 | O=C1/C(=C/c2ccc(F)cc2)CCC/C1=C\c1ccc(F)cc1 [DM62, (2E,6E)-2,6-bis(4-fluorobenzylidene)cyclohexanone] | 8.4 ± 0.36% | – | – | – | – | – | – | Effect on CD spectrum / conformation of the enzyme [3]: does not cause the conformational changes observed with DM96
6 | COc1ccc(/C=C/C(=O)/C=C/c2ccc(OC)c(OC)c2)cc1OC [DM95, (1E,4E)-1,5-bis(3,4-dimethoxyphenyl)penta-1,4-dien-3-one] | 44.2 ± 3.06% | – | – | – | – | – | – | –
7 | O=C(C=Cc1ccc(O)cc1)C=Cc1ccc(O)cc1 [DM96, 1,5-bis(4-hydroxyphenyl)penta-1,4-dien-3-one] | ~95% | -7.71 kcal/mol | -7.71 kcal/mol | 3.67 µM | 3.69 µM | 5.45 ± 1.08 µM | 86.99 ± 1.88% | Effect on CD spectrum / conformation of the enzyme [3]: causes a great change in the CD spectrum; Experimental Binding Free Energy ΔG′exp ([4]; variable substrate CDNB): -7.52 kcal/mol; Experimental Binding Free Energy ΔG′exp ([4]; variable substrate GSH): -8.29 kcal/mol; Type of Inhibition [4, 7]: mixed-type inhibitor; also recorded: Purely mixed; Inhibition Constant Ki΄ ([4]; variable substrate CDNB): 4.97 ± 2.86 μΜ; Type of Inhibition [4, 8]: partially mixed; also recorded: Partial mixed; Inhibition Constant Ki΄ ([4]; variable substrate GSH): 1.45 ± 0.43 μΜ; IC50 [5, 9]: 8.6 ± 1.07 µM
8 | COc1cc(C=C2CCCC(=Cc3ccc(O)c(OC)c3)C2=O)ccc1O [DM100, 2,6-bis(3-methoxy-4-hydroxy-benzylidene)cyclohexanone] | 40 ± 1.84% | – | – | – | – | – | – | –
9 | O=C(/C=C/c1ccc(F)cc1)/C=C/c1ccc(F)cc1 [DM109, (1E,4E)-1,5-bis(4-fluorophenyl)penta-1,4-dien-3-one] | ~95% | ΔGexp = −6.66 kcal/mol | ΔGexp = −5.96 kcal/mol | 20.1 µM | 35.1 µM | 19.5 ± 1.04 µM | 79.06 ± 2.54% | Type of Inhibition [4, 7]: Purely non-competitive; Type of Inhibition [4, 8]: Purely non-competitive; IC50 [5, 9]: 44.6 ± 1.08 µM; IC50 ([5]; MTT, 48 h incubation): 46.1 ± 3.68 µM
10 | O=C(/C=C/c1ccc(O)c(O)c1)/C=C/c1ccc(O)c(O)c1 [DM148, (1E,4E)-1,5-bis(3,4-dihydroxyphenyl)penta-1,4-dien-3-one] | 54.8 ± 0.52% | – | – | – | – | – | – | –
11 | O=C1C(=Cc2ccc(O)c(O)c2)CCCC1=Cc1ccc(O)c(O)c1 [DM151, 2,6-bis(3,4-dihydroxybenzylidene)cyclohexanone] | – | ΔGexp = −7.12 kcal/mol | ΔGexp = −7.43 kcal/mol | 9.55 µM | 5.79 µM | 11.2 ± 1.03 µM | 88.18 ± 3.65% | Type of Inhibition [4, 7]: Purely non-competitive; Type of Inhibition [4, 8]: Purely non-competitive; Enzyme Inhibition (%) [6]: did not show any inhibition at all; also recorded: No inhibition was observed; IC50 [5, 9]: 46.1 ± 3.68 µM; IC50 ([5]; MTT, 48 h incubation): 44.6 ± 1.08 µM
12 | COc1cc(/C=C/C(O)=C/C(=O)/C=C/c2ccc(O)cc2)ccc1O [DMC, Demethoxycurcumin] | – | -7.66 kcal/mol | -5.91 kcal/mol | 3.99 µM | 68 µM | 37.7 ± 1.02 µM | 94.56 ± 0.25% | Experimental Binding Free Energy ΔG′exp ([4]; variable substrate CDNB): -7.98 kcal/mol; Experimental Binding Free Energy ΔG′exp ([4]; variable substrate GSH): -6.07 kcal/mol; Type of Inhibition ([4]; variable substrate CDNB, 2.5 mM GSH, listed as Curcumin II): Partially mixed; Inhibition Constant Ki΄ ([4]; variable substrate CDNB): 2.36 ± 1.37 μΜ; Type of Inhibition ([4]; variable substrate GSH, 1 mM CDNB, listed as Curcumin II): Partially mixed; Inhibition Constant Ki΄ ([4]; variable substrate GSH): 52.83 ± 12.25 μΜ; IC50 ([5]; Homo sapiens, DU-145, 48 h): 48.5 ± 1.09 µM
